Assay results reported in patent US20130078613A1, “Selection of HCV Treatment” (ROCHE MOLECULAR SYSTEMS, priority 2011, published 2013).
Marks after values point to notes of the source that are not given here.

Tests used:
CHC genotype 1 or 4 [1] = assay: Clinical Study NV20536; assay type: in vivo, human; conditions: for SVR-12 and SVR-24: across RVR-guided arms; for relapse / SVR-12 (%) / SVR-12 n/N / SVR-24 (%) / SVR-24 n/N: sRVR patients
Text: (§1) The term “response” to treatment is a desirable response to the administration of an agent. Virological endpoints included “early virological response” (EVR), defined as ≧2-log drop in serum HCV RNA from baseline to week 12 (by Cobas Amplicor HCV Monitor Test, v2.0, limit of quantitation 600 IU/mL), complete EVR (cEVR) defined as undetectable HCV RNA (<15 IU/mL) in serum (by Cobas Amplicor HCV Test v2.0, […]) or and “sustained virological response” (SVR), defined as undetectable HCV RNA (<15 IU/mL) at the end of either a 12-week (SVR-12) or a 24-week (SVR-24) untreated follow-up period. The term “sustained rapid virological response” (sRVR) refers to undetectable HCV RNA (<15 IU/mL) during the period of 4 weeks and 22 weeks of treatment. The term “extended rapid virological response” (eRVR) refers to undetectable HCV RNA (<15 IU/mL) during the period of between 4 weeks and 20 weeks of treatment.
Study NV20536 was designed to determine the optimal dose (500 or 1000 mg twice daily [BID]) and duration (8 or 12 weeks) of RO5024048 in combination with PEG-IFN/RBV in treatment-naïve CHC genotype 1 or 4 patients. Patients enrolled in Study NV20536 were randomized to one of five treatment groups (FIG. 1A) (approximately 80 patients per treatment group). In the response-guided treatment groups, patients with a sustained RVR (sRVR, defined as undetectable HCV RNA from week 4-22) stopped all therapy at Week 24.
Patients received double blinded experimental treatment with RO5024048 500 mg BID and standard of care treatment (SOC, Pegasys 180 μg sc qw+Copegus 1000 mg (<75 kg) or 1200 mg (≧75 kg) po qd) or RO5024048 1000 mg BID and SOC respectively, for 12 weeks followed by SOC for 12 weeks. Patients who achieve an RVR, defined as undetectable HCV RNA at week 4, and remain undetectable through week 22 stopped all treatment at week 24. Non-RVR patients received SOC for an additional 24 weeks for a total treatment duration of 48 weeks.
Patients received double blinded experimental treatment with RO5024048 1000 mg BID and SOC for 8 weeks followed by SOC for 16 weeks. Patients who achieve an RVR defined as undetectable HCV RNA at week 4, and remain undetectable through week 22 stopped all treatment at week 24. Non-RVR patients received SOC for an additional 24 weeks for a total treatment duration of 48 weeks. […]
(§2) The Roche Clinical Repository (RCR) is an optional program that requires separate consent; data are anonymized to assure patient privacy. The RCR DNA samples were used to determine IL28B status using TaqMan Real-Time PCR for rs12979860. Efficacy endpoints were summarized for the two subgroups, CC vs. non-CC (CT and TT).

CHC genotype 1 or 4 [2] = assay: Clinical Study NV22621; assay type: in vivo, human
Text: as §1
Study NV22621 was designed to determine the safety and efficacy of longer treatment duration (24 weeks) of 1000 mg BID RO5024048 in combination with PEG-IFN/RBV in treatment naïve CHC genotype 1 or 4 patients. Patients enrolled in Study NV22621 were randomized to one of two treatment groups (FIG. 1B) (approximately 80 patients per treatment group). In the response-guided treatment group, patients with a sustained RVR (sRVR, defined as undetectable HCV RNA from week 4-22) stopped all therapy at Week 24.
as §2, with “PCR.” for “PCR for rs12979860.”

[3] = target: NS5B-directed HCV polymerase (Hepatitis C virus genotype 1b, UniProt Q9WMX2); conditions: ref [7]; cited from earlier work
Chain of NS5B-directed HCV polymerase (Q9WMX2 2420-3010): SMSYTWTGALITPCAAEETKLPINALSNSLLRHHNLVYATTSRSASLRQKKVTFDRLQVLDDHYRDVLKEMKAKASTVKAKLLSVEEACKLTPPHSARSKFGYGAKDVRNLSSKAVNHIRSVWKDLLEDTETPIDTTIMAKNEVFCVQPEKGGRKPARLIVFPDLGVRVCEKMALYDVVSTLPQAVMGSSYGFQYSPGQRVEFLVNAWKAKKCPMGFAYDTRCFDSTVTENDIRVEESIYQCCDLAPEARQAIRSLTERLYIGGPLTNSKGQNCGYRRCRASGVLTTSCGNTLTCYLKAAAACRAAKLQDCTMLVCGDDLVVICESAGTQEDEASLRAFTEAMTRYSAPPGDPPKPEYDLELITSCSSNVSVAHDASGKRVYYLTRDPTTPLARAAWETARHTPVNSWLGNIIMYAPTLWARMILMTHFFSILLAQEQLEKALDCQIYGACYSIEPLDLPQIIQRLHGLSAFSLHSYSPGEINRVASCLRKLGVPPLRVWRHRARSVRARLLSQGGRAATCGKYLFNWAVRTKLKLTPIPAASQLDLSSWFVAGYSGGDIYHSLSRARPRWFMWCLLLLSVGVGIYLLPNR

NS5B (S282T) = target: T1, NS5B (S282T) (Hepatitis C virus genotype 1b, UniProt Q9WMX2, S2701T); conditions: sequential passage of replicon cells; cited from earlier work
T1 construct: Amino acid substitution in NS5B (S282T)
T1 sequence (Q9WMX2 2420-3010 S2701T): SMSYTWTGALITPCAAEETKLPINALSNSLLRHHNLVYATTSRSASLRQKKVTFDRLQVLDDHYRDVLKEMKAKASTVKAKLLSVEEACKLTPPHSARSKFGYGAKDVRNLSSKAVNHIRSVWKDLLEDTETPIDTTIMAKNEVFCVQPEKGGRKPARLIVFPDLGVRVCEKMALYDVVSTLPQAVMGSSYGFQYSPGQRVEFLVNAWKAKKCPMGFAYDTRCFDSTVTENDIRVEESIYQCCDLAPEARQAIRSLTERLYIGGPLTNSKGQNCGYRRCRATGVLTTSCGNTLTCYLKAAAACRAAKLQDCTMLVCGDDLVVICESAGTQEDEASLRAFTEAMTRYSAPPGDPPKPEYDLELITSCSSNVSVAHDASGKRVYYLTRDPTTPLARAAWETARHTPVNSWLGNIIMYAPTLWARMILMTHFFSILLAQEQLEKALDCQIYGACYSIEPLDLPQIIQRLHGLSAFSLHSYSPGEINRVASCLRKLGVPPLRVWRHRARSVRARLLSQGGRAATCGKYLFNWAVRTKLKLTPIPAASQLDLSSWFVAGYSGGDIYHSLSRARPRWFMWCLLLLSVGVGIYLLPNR

HCV [4] = conditions: combination with PEG-IFN and RBV; cited from earlier work
HCV genotypes (1-4) = conditions: four main genotypes (1-4); cited from earlier work
[5] = extensively converted to RO4995855; cited from earlier work
HCV [6] = conditions: RBV monotherapy; cited from earlier work
[7] = Group A, 500 mg 12 wks + P/R RVR-guided, IL28B CC
[8] = Group A, 500 mg 12 wks + P/R RVR-guided, IL28B NonCC
[9] = Group A, 500 mg 12 wks + P/R RVR-guided, Total
[10] = Group B, 1000 mg 8 wks + P/R RVR-guided, IL28B CC
[11] = Group B, 1000 mg 8 wks + P/R RVR-guided, IL28B NonCC
[12] = Group B, 1000 mg 8 wks + P/R RVR-guided, Total
[13] = Group C, 1000 mg 12 wks + P/R RVR-guided, IL28B CC
[14] = Group C, 1000 mg 12 wks + P/R RVR-guided, IL28B NonCC
[15] = Group C, 1000 mg 12 wks + P/R RVR-guided, Total
[16] = Group A, 1000 mg 24 wks + P/R RVR-guided, Total, sRVR patients

CC(C)C(=O)OC[C@H]1O[C@@H](n2ccc(N)nc2=O)[C@](C)(F)[C@@H]1OC(=O)C(C)C [RO5024048, mericitabine]
RVR (undetectable HCV RNA at week 4) (CHC genotype 1 or 4 [1]; 500-mg 12-week RVR-guided group, with PEG-IFN/RBV, overall population): 38% | SVR-12 and SVR-24 (CHC genotype 1 or 4 [1]; CC patients who achieve sRVR and stop all treatment after 24 weeks): 67-90% | relapse (CHC genotype 1 or 4 [1]; CC, arm A, 12 weeks followup after EOT): 2/8 | relapse (CHC genotype 1 or 4 [1]; CC, arm A, 24 weeks followup after EOT): 2/7 | relapse (CHC genotype 1 or 4 [1]; CC, arm C, 12 weeks followup after EOT): 4/12 | relapse (CHC genotype 1 or 4 [1]; CC, arm C, 24 weeks followup after EOT): 4/12 | SVR-12 (%) (CHC genotype 1 or 4 [1]; [7]): (75.0%) | SVR-12 n/N (CHC genotype 1 or 4 [1]; [7]): 6/8 | SVR-24 (%) (CHC genotype 1 or 4 [1]; [7]): (85.7%) | SVR-24 n/N (CHC genotype 1 or 4 [1]; [7]): 6/7 | SVR-12 (%) (CHC genotype 1 or 4 [1]; [8]): (66.7%) | SVR-12 n/N (CHC genotype 1 or 4 [1]; [8]): 6/9 | SVR-24 (%) (CHC genotype 1 or 4 [1]; [8]): (55.6%) | SVR-24 n/N (CHC genotype 1 or 4 [1]; [8]): 5/9 | SVR-12 (%) (CHC genotype 1 or 4 [1]; [9]): (70.6%)* | SVR-12 n/N (CHC genotype 1 or 4 [1]; [9]): 12/17 | SVR-24 (%) (CHC genotype 1 or 4 [1]; [9]): (68.8%)* | SVR-24 n/N (CHC genotype 1 or 4 [1]; [9]): 11/16 | sRVR (%) (CHC genotype 1 or 4 [1]; Group A, RO5024048 500 mg 12 wks + P/R 24/48 wks RVR-guided, N = 49, Total): (36.7%) | SVR-12 (%) (CHC genotype 1 or 4 [1]; [10]): (90.0%) | SVR-12 n/N (CHC genotype 1 or 4 [1]; [10]): 9/10 | SVR-24 (%) (CHC genotype 1 or 4 [1]; [10]): (80.0%) | SVR-24 n/N (CHC genotype 1 or 4 [1]; [10]): 8/10 | SVR-12 (%) (CHC genotype 1 or 4 [1]; [11]): (38.5%) | SVR-12 n/N (CHC genotype 1 or 4 [1]; [11]): 5/13 | SVR-24 (%) (CHC genotype 1 or 4 [1]; [11]): (25.0%) | SVR-24 n/N (CHC genotype 1 or 4 [1]; [11]): 3/12 | SVR-12 (%) (CHC genotype 1 or 4 [1]; [12]): (60.9%) | SVR-12 n/N (CHC genotype 1 or 4 [1]; [12]): 14/23 | SVR-24 (%) (CHC genotype 1 or 4 [1]; [12]): (50.0%)* | SVR-24 n/N (CHC genotype 1 or 4 [1]; [12]): 11/22 | sRVR (%) (CHC genotype 1 or 4 [1]; Group B, RO5024048 1000 mg 8 wks + P/R 24/48 wks RVR-guided, N = 49, Total): (46.9%) | SVR-12 n/N (CHC genotype 1 or 4 [1]; [13]): 8/12 | SVR-24 (%) (CHC genotype 1 or 4 [1]; [13]): (66.7%) | SVR-24 n/N (CHC genotype 1 or 4 [1]; [13]): 8/12 | SVR-12 n/N (CHC genotype 1 or 4 [1]; [14]): 5/18 | SVR-24 (%) (CHC genotype 1 or 4 [1]; [14]): (22.2%) | SVR-24 n/N (CHC genotype 1 or 4 [1]; [14]): 4/18 | SVR-12 (%) (CHC genotype 1 or 4 [1]; [15]): (43.3%) | SVR-12 n/N (CHC genotype 1 or 4 [1]; [15]): 13/30 | SVR-24 (%) (CHC genotype 1 or 4 [1]; [15]): (40.0%) | SVR-24 n/N (CHC genotype 1 or 4 [1]; [15]): 12/30 | sRVR (%) (CHC genotype 1 or 4 [1]; Group C, RO5024048 1000 mg 12 wks + P/R 24/48 wks RVR-guided, N = 46, Total): (65.2%) | SVR-12 and SVR-24 (CHC genotype 1 or 4 [1]; non-CC patients who achieve sRVR and stop all treatment after 24 weeks): 22-67% | relapse (CHC genotype 1 or 4 [1]; non-CC, Arm A, 12 weeks followup after EOT): 3/9 | relapse (CHC genotype 1 or 4 [1]; non-CC, Arm A, 24 weeks followup after EOT): 4/9 | relapse (CHC genotype 1 or 4 [1]; non-CC, Arm C, 12 weeks followup after EOT): 13/18 | relapse (CHC genotype 1 or 4 [1]; non-CC, Arm C, 24 weeks followup after EOT): 14/18 | cEVR (CHC genotype 1 or 4 [2]; 1000-mg group, RCR-consented population): 94% | SVR-12 n/N (CHC genotype 1 or 4 [2]; Group A, 1000 mg 24 wks + P/R RVR-guided, IL28B CC, sRVR patients): 12/15 | SVR-12 n/N (CHC genotype 1 or 4 [2]; Group A, 1000 mg 24 wks + P/R RVR-guided, IL28B NonCC, sRVR patients): 13/18 | SVR-12 (%) (CHC genotype 1 or 4 [2]; [16]): (75.0%)* | SVR-12 n/N (CHC genotype 1 or 4 [2]; [16]): 24/32 | sRVR (%) (CHC genotype 1 or 4 [2]; Group A, RO5024048 1000 mg 24 wks + P/R 24/48 wks RVR-guided, N = 52, Total): (63.5%) | RVR (CHC genotype 1 or 4 [2]; RVR-guided 1000-mg group (24 wks with PEG-IFN/RBV), overall population): 63% | cEVR (CHC genotype 1 or 4 [2]; RVR-guided 1000-mg group, overall ITT population): 89% | week-24 virological response (CHC genotype 1 or 4 [2]; RVR-guided 1000-mg group, overall population): 91% | maximal rate of undetectable viral load (CHC genotype 1 or 4 [2]; non-CC genotype, 24 weeks of triple therapy, at weeks 20 to 24 (data not shown)): > 90% | IC50 [3]: 610 ± 40 nM | resistance conferred by NS5B S282T substitution (NS5B (S282T)): low level resistance | antiviral effect of combination (HCV [4]): additive antiviral effect | in vitro activity across genotypes (HCV genotypes (1-4)): Activity has been demonstrated | absorption after oral administration [5]: rapidly absorbed

NC(=O)c1ncn([C@@H]2O[C@H](CO)[C@@H](O)[C@H]2O)n1 [ribavirin, 1-((2R,3R,4S,5R)-3,4-Dihydroxy-5-hydroxymethyl-tetrahydro-furan-2-yl)-1H-[1,2,4]triazole-3-carboxylic acid amide]
effect on the replication of HCV (HCV [6]): little or no effect
